Reference: patent publication US8394785B2, “Methods for the treatment and amelioration of urticaria” (Jado Technologies GmbH, priority 2005, dated 2013)

What was measured:
[1] = test system: allergic volunteers with known type-1-sensitizations; assay: Prick test with patient-specific allergen after topical pre-treatment, wheal size; format: in vivo, human; conditions: n = 5; for allergen-prick wheal ± standard error: miltefosine pre-treatment (6% solution, topical, 2 h before); for allergen-prick % inhibition ± standard error (by miltefosine pre-treatment): versus placebo pre-treatment
Description: To provide proof of concept that miltefosine inhibits IgE-dependent human mast cell stimulation and mediator release in vivo we performed a study on selected allergic volunteers with known type-1-sensitizations (n=5). The volunteers were subjected to standard prick testing with their known allergens on both forearms as well as with positive (histamine) and negative (saline) controls (Table 3). Using a double blind, placebo controlled approach, one forearm of each test person was pre-treated with topical miltefosine (6% solution). The contralateral side was subjected to a pre-treatment with a placebo solution (saline), both two hours prior to the prick test. Subsequently, developing skin symptoms were measured with high-quality standardized methods, i.e. macroscopic standard prick test-evaluation (Heinzerling et al 2005), volumetric imaging, thermography, and digital time lapse photography (DTLP). Volunteers known to suffer from permanent severe diseases, especially those affecting the immune system, were excluded from the study. None of the volunteers took any oral […] or leukotriene antagonists within 7 days prior to the beginning of the study. Moreover, none of them took any oral or depot corticosteroids or other immunosuppressive drugs within 21 days before the testing. The course of developing lesions (wheal and erythema size) was assessed macroscopically by measuring vertical and perpendicular diameter of wheal and erythema size. Subsequently, the sum of both diameters was divided by two. In addition, volumetric and thermographic imaging as well as DTLP was performed before and at defined time points after prick testing. To assess the course of developing prick test lesions, wheal size was assessed macroscopically by measuring the diameters at distinct time points after prick testing.

[2] = test system: primary human mast cells (human skin); assay: Histamine release assay, Substance P induced, primary human mast cells; format: cell-based; conditions: dose-dependent; not dependent on pre-incubation time
Method: (§1) Tissue mast cells were isolated from human skin obtained during cosmetic surgery. Use of human skin was conducted according to the Declaration of Helsinki Principles and was approved by the Institutional Review Board of the Charité—Universitätsmedizin Berlin. For isolation of mast cells, the epidermis was enzymatically detached by an overnight incubation at 4° C. with dispase at a concentration of 1 mg/ml. The remaining dermis was dispersed by incubation with a mix of collagenase I and hyaluronidase for 1 h at 37° C. Dispersion was repeated three times, and the collected cells were washed. […] The final mast cell purity was >90% as measured by Toluidin blue staining. The viability of mast cells was >95% as assessed by Trypan blue staining (Grützkau et al 2000, Artuc et al 2002). The quantification of histamine levels was achieved using an automated histamine-analyser system (Firm Borgwelt Technik). The wavelength of the excitation was 355-360 nm and the emission wavelength of fluorescence measurement was 450-460 nm. The intensity of fluorescence was directly proportional to the concentration of histamine in the samples. The amount of released histamine was calculated according to the following formula: net histamine release=(release−blank)×(100/complete). […]

[3] = test system: primary human mast cells (human skin); assay: Histamine release assay, anti-IgE induced, primary human mast cells; format: cell-based; conditions: Mast cell, maximal effect at 25 μM, not dependent on pre-incubation time, read-out: maximal inhibitory effect on IgE-induced histamine release
Method: as §1

CCCCCCCCCCCCCCCCOP(=O)([O-])OCC[N+](C)(C)C [Compound 3, 1-hexadecylphosphoryl-choline]
allergen-prick wheal ± standard error ([1]; 15 minutes after prick testing): 4.20 ± 1.36 mm
allergen-prick wheal ± standard error ([1]; 20 minutes after prick testing): 4.40 ± 1.34 mm
allergen-prick wheal ± standard error ([1]; 30 minutes after prick testing): 2.90 ± 1.36 mm
allergen-prick % inhibition ± standard error (by miltefosine pre-treatment) ([1]; 15 minutes after prick testing): 35.0 ± 16.6%
allergen-prick % inhibition ± standard error (by miltefosine pre-treatment) ([1]; 20 minutes after prick testing): 34.8 ± 18.0%
allergen-prick % inhibition ± standard error (by miltefosine pre-treatment) ([1]; 30 minutes after prick testing): 51.8 ± 22.8%
inhibition of Substance P induced histamine release [2]: 45%
inhibition at 25 µM [3]: 35%
